Values quoted from earlier work, collected in US7090851B1, “Long lasting fusion peptide inhibitors of viral infection” (priority 1999, dated 2006).
“Also recorded” adds a separate entry of the source.

tested on: HIV-1; conditions: infection and cell-cell fusion

Substance	anti-HIV-1 activity (words)
enfuvirtide	potent inhibitor of HIV-1; also recorded: potent anti-HIV-1 activity

same assay, conditions: infection and cell-cell fusion; listed as DP-107

Substance	anti-HIV-1 activity (words)
NNLLRAIEAQQHLLQLTVWQIKQLQARILAVERYLKDQ [DP107]	potent inhibitors of HIV-1 infection and fusion

same assay, conditions: infection and cell-cell fusion; listed as DP-178

Substance	anti-HIV-1 activity (words)
enfuvirtide	potent inhibitors of HIV-1 infection and fusion

tested on: simian immunodeficiency virus (SIV); conditions: as crude peptide

Substance	anti-SIV activity
DFLEENITALLEEAQIQQEKNMYELQKLNSWDVFG [SEQ ID NO:72]	potent antiviral activity
ERKVDFLEENITALLEEAQIQQEKNMYELQKLNSW [SEQ ID NO:68]	potent antiviral activity
EWERKVDFLEENITALLEEAQIQQEKNMYELQKLN [SEQ ID NO:66]	potent antiviral activity
FLEENITALLEEAQIQQEKNMYELQKLNSWDVFGN [SEQ ID NO:73]	potent antiviral activity
KVDFLEENITALLEEAQIQQEKNMYELQKLNSWDV [SEQ ID NO:70]	potent antiviral activity
QEWERKVDFLEENITALLEEAQIQQEKNMYELQKL [SEQ ID NO:65]	potent antiviral activity
RKVDFLEENITALLEEAQIQQEKNMYELQKLNSWD [SEQ ID NO:69]	potent antiviral activity
VDFLEENITALLEEAQIQQEKNMYELQKLNSWDVF [SEQ ID NO:71]	potent antiviral activity
WERKVDFLEENITALLEEAQIQQEKNMYELQKLNS [SEQ ID NO:67]	potent antiviral activity
WQEWERKVDFLEENITALLEEAQIQQEKNMYELQK [SEQ ID NO:64]	potent antiviral activity

tested on: human parainfluenza virus 3 (HPIV3); conditions: HPIV3-infected Hep2 cells and uninfected CV-1W cells

Substance	inhibition of HPIV3 viral infection, fusion and syncytia formation
ALDPIDISIELNKAKSDLEESKEWIRRSNQKLDSI (VALDPIDISIELNKAKSDLEESKEWIRRSNQKLDS) [SEQ ID NO:38, anti-HPIV peptide]	inhibits viral infection
DPIDISIELNKAKSDLEESKEWIRRSNQKLDSIGN (LDPIDISIELNKAKSDLEESKEWIRRSNQKLDSIG) [SEQ ID NO:40, anti-HPIV peptide]	inhibits viral infection
IDISIELNKAKSDLEESKEWIRRSNQKLDSIGNWH (PIDISIELNKAKSDLEESKEWIRRSNQKLDSIGNW) [SEQ ID NO:42, anti-HPIV peptide]	inhibits viral infection
LDPIDISIELNKAKSDLEESKEWIRRSNQKLDSIG (ALDPIDISIELNKAKSDLEESKEWIRRSNQKLDSI) [SEQ ID NO:39, anti-HPIV peptide]	inhibits viral infection
NSVALDPIDISIELNKAKSDLEESKEWIRRSNQKL (NNSVALDPIDISIELNKAKSDLEESKEWIRRSNQK) [SEQ ID NO:35, anti-HPIV peptide]	inhibits viral infection
PIDISIELNKAKSDLEESKEWIRRSNQKLDSIGNW (DPIDISIELNKAKSDLEESKEWIRRSNQKLDSIGN) [SEQ ID NO:41, anti-HPIV peptide]	inhibits viral infection
RSDIEKLKEAIRDTNKAVQSVQSSIGNLIVAIKSV [SEQ ID NO:58]	inhibits viral infection
VEAKQARSDIEKLKEAIRDTNKAVQSVQSSIGNLI [SEQ ID NO:52]	inhibits viral infection

tested on: measles virus (MeV); conditions: MeV-infected and uninfected Vero cells

Substance	inhibition of MeV viral infection, fusion and syncytia formation
HRIDLGPPISLERLDVGTNLGNAIAKLEAKELLE [SEQ ID NO:77]	inhibits viral infection
IDLGPPISLERLDVGTNLGNAIAKLEAKELLESS [SEQ ID NO:79]	inhibits viral infection
PISLERLDVGTNLGNAIAKLEAKELLESSDQILR [SEQ ID NO:84]	inhibits viral infection

tested on: respiratory syncytial virus (RSV); conditions: Hep-2 cells

Substance	concentration inhibiting fusion and syncytia formation between RSV-infected and uninfected Hep-2 cells
IALLSTNKAVVSLSNGVSVLTSKVLDLKNYIDK [SEQ ID NO:29, anti-RSV peptide]	less than 50 μg/ml

same assay, conditions: RSV-infected and uninfected Hep-2 cells

Substance	inhibition of RSV viral infection, fusion and syncytia formation
IALLSTNKAVVSLSNGVSVLTSKVLDLKNYIDK [SEQ ID NO:29, anti-RSV peptide]	inhibits viral infection
TSVITIELSNIKENKCNGAKVKLIKQELDKYKN (TSVITIELSNIKENKCNGDAKVKLIKQELDKYKN) [SEQ ID NO:15, anti-RSV peptide]	inhibits viral infection
VITIELSNIKENKCNGAKVKLIKQELDKYKNAV (VITIELSNIKENKCNGDAKVKLIKQELDKYKNAV) [SEQ ID NO:16, anti-RSV peptide]	inhibits viral infection
YTSVITIELSNIKENKCNGAKVKLIKQELDKYK (YTSVITIELSNIKENKCNGDAKVKLIKQELDKYK) [SEQ ID NO:14, anti-RSV peptide]	inhibits viral infection
